Marks after values point to notes of the source that are not given here.
Experiment: Biodistribution of [^211At]1 and [^125I]2 in normal mice with ibuprofen or IPBA as albumin-binding inhibitor
Conditions: 4 h after administration
Experimental: To evaluate the effects of albumin-binding inhibitors in normal mice, [^211At]1 (37 kBq) and [^125I]2 (37 kBq) were intravenously coadministered. […] The total blood albumin (1.1 µmol) in normal mice was calculated from the albumin concentration (3.0 g/dL ≈ 455 µM) in blood, which was informed from Japan SLC, Inc., total blood volume (2.5 mL) as 8% of body weight, and the molecular weight of albumin as 66,000 g/mol. […]
Table S1. Biodistribution of radioactivity 4 h after administration of [^211At]1 and [^125I]2 in normal mice.

[1] = IPBA 10 eq at 1 h postinjection
[2] = ibuprofen 10 eq at 1 h postinjection

- Radioactivity, Neck (IPBA 2 eq at 1 h postinjection): 0.32 (0.10) % injected activity
- Radioactivity, Stomach (IPBA 2 eq at 1 h postinjection): 1.21 (0.07)^ * % injected activity
- Radioactivity, L. intestine (IPBA 5 eq at 1 h postinjection): 0.87 (0.25) % injected activity per gram
- Radioactivity, Neck (IPBA 5 eq at 1 h postinjection): 0.07 (0.02)^ a % injected activity
- Radioactivity, S. intestine (IPBA 5 eq at 1 h postinjection): 1.33 (0.14) % injected activity per gram
- Radioactivity, Stomach (IPBA 5 eq at 1 h postinjection): 1.11 (0.34)^ **,^ a % injected activity
- Radioactivity, Kidney [1]: 3.60 (0.43) % injected activity per gram
- Radioactivity, Neck [1]: 0.03 (0.02)^ b, c, d % injected activity
- Radioactivity, Stomach [1]: 0.94 (0.12)^ ** % injected activity
- Radioactivity, Kidney [2]: 3.10 (0.24) % injected activity per gram
- Radioactivity, Muscle [2]: 1.19 (0.07) % injected activity per gram
- Radioactivity, Neck [2]: 0.36 (0.12)^ *,^ a % injected activity
- Radioactivity, Pancreas [2]: 1.78 (0.09) % injected activity per gram
- Radioactivity, Stomach [2]: 1.16 (0.03)^ * % injected activity
- Radioactivity, Bone (vehicle at 1 h postinjection): 1.84 (0.12) % injected activity per gram
- Radioactivity, Brain (vehicle at 1 h postinjection): 0.38 (0.09) % injected activity per gram
- Radioactivity, Heart (vehicle at 1 h postinjection): 4.05 (0.98) % injected activity per gram
- Radioactivity, Kidney (vehicle at 1 h postinjection): 3.32 (0.15) % injected activity per gram
- Radioactivity, L. intestine (vehicle at 1 h postinjection): 1.59 (0.38) % injected activity per gram
- Radioactivity, Liver (vehicle at 1 h postinjection): 2.51 (0.07) % injected activity per gram
- Radioactivity, Muscle (vehicle at 1 h postinjection): 1.28 (0.06) % injected activity per gram
- Radioactivity, Neck (vehicle at 1 h postinjection): 0.13 (0.03)^ * % injected activity
- Radioactivity, Pancreas (vehicle at 1 h postinjection): 1.81 (0.05) % injected activity per gram
- Radioactivity, Spleen (vehicle at 1 h postinjection): 2.11 (0.08) % injected activity per gram
- Radioactivity, Stomach (vehicle at 1 h postinjection): 0.80 (0.12) % injected activity
Substance: Ga-DOTA-K([^125I]IPBA)-c(RGDfK) [[^125I]2]
- Radioactivity, Blood (IPBA 2 eq at 1 h postinjection): 7.26 (0.34)^ ***, a, b % injected activity per gram
- Radioactivity, Bone (IPBA 2 eq at 1 h postinjection): 1.22 (0.11) ^a, b % injected activity per gram
- Radioactivity, Brain (IPBA 2 eq at 1 h postinjection): 0.20 (0.03)^ *,^ a % injected activity per gram
- Radioactivity, Heart (IPBA 2 eq at 1 h postinjection): 2.49 (0.13)^ **,^ a % injected activity per gram
- Radioactivity, Kidney (IPBA 2 eq at 1 h postinjection): 3.46 (0.17)^ * % injected activity per gram
- Radioactivity, L. intestine (IPBA 2 eq at 1 h postinjection): 1.14 (0.31)^ ** % injected activity per gram
- Radioactivity, Liver (IPBA 2 eq at 1 h postinjection): 1.58 (0.12)^ a % injected activity per gram
- Radioactivity, Lung (IPBA 2 eq at 1 h postinjection): 4.22 (0.49)^ ***,^ a, b % injected activity per gram
- Radioactivity, Muscle (IPBA 2 eq at 1 h postinjection): 1.02 (0.07)^ *,^ a, b % injected activity per gram
- Radioactivity, Pancreas (IPBA 2 eq at 1 h postinjection): 1.41 (0.10)^ *,^ a, b % injected activity per gram
- Radioactivity, S. intestine (IPBA 2 eq at 1 h postinjection): 1.28 (0.03)^ **,^ a % injected activity per gram
- Radioactivity, Spleen (IPBA 2 eq at 1 h postinjection): 1.15 (0.11)^ *,^ a, b % injected activity per gram
- Radioactivity, Blood (IPBA 5 eq at 1 h postinjection): 2.06 (0.24)^ ***, a, b, c % injected activity per gram
- Radioactivity, Bone (IPBA 5 eq at 1 h postinjection): 0.73 (0.06)^ **,^ a, b, c % injected activity per gram
- Radioactivity, Brain (IPBA 5 eq at 1 h postinjection): 0.15 (0.02)^ a % injected activity per gram
- Radioactivity, Heart (IPBA 5 eq at 1 h postinjection): 0.83 (0.09)^ **,^ a, b, c % injected activity per gram
- Radioactivity, Kidney (IPBA 5 eq at 1 h postinjection): 3.52 (0.08)^ *, b % injected activity per gram
- Radioactivity, Liver (IPBA 5 eq at 1 h postinjection): 1.20 (0.12)^ *,^ a, b, c % injected activity per gram
- Radioactivity, Lung (IPBA 5 eq at 1 h postinjection): 1.92 (0.16)^ **,^ a, b, c % injected activity per gram
- Radioactivity, Muscle (IPBA 5 eq at 1 h postinjection): 0.47 (0.04)^ **,^ a, b, c % injected activity per gram
- Radioactivity, Pancreas (IPBA 5 eq at 1 h postinjection): 0.79 (0.10)^ **,^ a, b, c % injected activity per gram
- Radioactivity, Spleen (IPBA 5 eq at 1 h postinjection): 0.93 (0.58)^ a, b % injected activity per gram
- Radioactivity, Blood [1]: 0.95 (0.12)^ **, a, b, c, d % injected activity per gram
- Radioactivity, Bone [1]: 0.77 (0.07)^ **,^ a, b, c % injected activity per gram
- Radioactivity, Brain [1]: 0.15 (0.03)^ a % injected activity per gram
- Radioactivity, Heart [1]: 0.58 (0.10)^ ***,^ a, b, c % injected activity per gram
- Radioactivity, L. intestine [1]: 0.98 (0.31) ^*, b % injected activity per gram
- Radioactivity, Liver [1]: 0.84 (0.06)^ a, b, c % injected activity per gram
- Radioactivity, Lung [1]: 1.33 (0.09)^ ***,^ a, b, c % injected activity per gram
- Radioactivity, Pancreas [1]: 0.60 (0.15)^ a, b, c, d % injected activity per gram
- Radioactivity, S. intestine [1]: 1.17 (0.13)^ a % injected activity per gram
- Radioactivity, Spleen [1]: 1.00 (0.19)^ **,^ a, b % injected activity per gram
- Radioactivity, Blood [2]: 10.19 (0.64)^ ***, a % injected activity per gram
- Radioactivity, Bone [2]: 1.56 (0.16)^ a % injected activity per gram
- Radioactivity, Brain [2]: 0.25 (0.05)^ a % injected activity per gram
- Radioactivity, Heart [2]: 3.24 (0.29)^ * % injected activity per gram
- Radioactivity, L. intestine [2]: 1.87 (0.66) ^* % injected activity per gram
- Radioactivity, Liver [2]: 1.81 (0.24)^ a % injected activity per gram
- Radioactivity, Lung [2]: 6.02 (0.99)^ *,^ a % injected activity per gram
- Radioactivity, S. intestine [2]: 1.49 (0.12)^ * % injected activity per gram
- Radioactivity, Spleen [2]: 1.49 (0.18)^ a % injected activity per gram
- Radioactivity, Blood (vehicle at 1 h postinjection): 13.28 (0.80)^ *** % injected activity per gram
- Radioactivity, Lung (vehicle at 1 h postinjection): 7.38 (0.61)^ * % injected activity per gram
- Radioactivity, S. intestine (vehicle at 1 h postinjection): 1.94 (0.14)^ ** % injected activity per gram

Reference: PMC11224111, “Optimizing the pharmacokinetics of an ^211At-labeled RGD peptide with an albumin-binding moiety via the administration of an albumin-binding inhibitor” (European Journal of Nuclear Medicine and Molecular Imaging, 2024)
